Experimental findings from patent publication USRE48636E1, “Decoy peptides inhibiting protein phosphatase 1-mediated dephosphorylation of phospholamban” (BethphaGen Inc., priority 2012, dated 2021) are described below.

Test [1] concerns PP1-mediated dephosphorylation of PLB. The experiment in a line: PLB phosphorylation (Western blot) in PMA-treated isolated adult cardiomyocytes. As to conditions: 1 μM peptide 45 min, then 1 μM PMA 15 min; for Blocking of PMA-induced dephosphorylation of PLB at Ser16 and Thr17 (elevating the phosphorylation levels of PLB): Western blot. Format: cell-based, rat. The protocol:
FIGS. 1c-1d represent the increase in PLB phosphorylation by the decoy peptides (FIG. 1c) and shortened decoy peptides (FIG. 1d). Isolated adult cardiomyocytes were treated with 1 μM of indicated peptides for 45 min, and then with 1 μM of PMA for 15 min. Western blots of cell lysates were then probed with antibodies against phospho-PLB (S^16), phospho-PLB (T^17), total PLB, or GAPDH. The decoy peptides contain the following sequences: ψPLB-SE, RAETIEMPQ (SEQ ID NO:1); ψPLB-SD, RADTIEMPQ (SEQ ID NO:3); ψPLB-TE, RASEIEMPQ (SEQ ID NO:2). The shortened decoy peptides contain the following sequences: ψPLB-8-mer, AETIEMPQ (SEQ ID NO:4); ψPLB-7-mer, RAETIEM (SEQ ID NO:5); ψPLB-6-mer, RAETIE (SEQ ID NO:6); ψPLB-5-mer: RAETI (SEQ ID NO:7). PMA, phorbol 12-myristate 13-acetate.
The decoy peptides were derived from the PLB protein sequence (SEQ ID NO:10) surrounding the phosphorylation sites Ser^16 and Thr^17: RAS^16T^17IEMPQ. The peptides were conjugated via a cystein-cystein bond at their N termini to the cell penetrating peptide TAT (YGRKKRRQRRR (SEQ ID NO:11)) to facilitate uptake into cells. The peptides used in this invention were as follows: ψPLB-wt, RASTIEMPQ (SEQ ID NO:8); ψPLB-SE, RAETIEMPQ (SEQ ID NO:1); ψPLB-TE, RASEIEMPQ (SEQ ID NO:2); ψPLB-SD, RADTIEMPQ (SEQ ID NO:3). In addition, shortened ψPLB-SE peptides were also tested: 8-mer, AETIEMPQ (SEQ ID NO:4); 7-mer, RAETIEM (SEQ ID NO:5); 6-mer, RAETIE (SEQ ID NO:6); 5-mer, RAETI (SEQ ID NO:7). All of the peptides were synthesized and modified by AnyGen (Gwangju, Korea) and dissolved in distilled water to a stock concentration of 1 mM. Peptides were >95% pure. The decoy peptides were treated for 1 h at a final concentration of 1 μM.
(§1) Ventricular myocytes were isolated from SD rat hearts as previously described with minor modifications. Male rats of 8-12 weeks of age (250-320 g) were used. In brief, rats were anesthetized by the inhalation of isofluran (0.5%) for 5 min. The heart was quickly removed from the chest and the aorta was retrogradely perfused at 37° C. for 3 min with calcium-free Tyrode buffer (137 mM NaCl, 5.4 mM KCl, 1 mM MgCl2, 10 mM glucose, 10 mM HEPES [pH 7.4], 10 mM 2, 3-butanedione monoxime, and 5 mM taurine) gassed with 100% O2. The enzymatic digestion was then initiated by adding collagenase type B (0.35 U/ml; Roche) and hyaluronidase (0.1 mg/ml; Worthington) to the perfusion solution. When the heart became swollen after 10 min of digestion, the left ventricle was quickly removed, cut into several chunks, and further digested in a shaker (60-70 rpm) for 10 min at 37° C. in the same enzyme solution. The supernatant containing the dispersed myocytes was then filtered through a cell strainer (100 μm in pore size, BD Falcon) and gently centrifuged at 500 rpm for 1 min. Extracellular Ca^2+ was incrementally added back to a concentration of 1.25 mM over a span of 30 min to avoid the Ca^2+ paradox. This procedure usually yielded ≥80% viable rod-shaped ventricular myocytes with clear sarcomere striations. Myocytes with obvious sarcolemmal blebs or spontaneous contractions were discarded.
(§2) Heart lysates (50 μg) in SDS sample buffer were run on a SDS-PAGE gel and then transferred to a PVDF membrane (Bio-Rad). The membrane was blocked with a 5% skim milk solution and then incubated overnight with antibodies directed against PLB (Affinity Bioreagents), phospho-PLB (Ser^16, Cell Signaling), phospho-PLB (Thr^17, Badrilla), SERCA2a (Santa Cruz), Caspase 3 (Cell Signaling), or GAPDH (Santa Cruz). The membranes were then incubated with a secondary antibody conjugated to horseradish peroxidase (Jackson Immuno Research) and developed using the Western Lighting chemiluminescence reagent (Perkin Elmer).
In general terms: A western blot detects proteins with antibodies after separation by electrophoresis.

In test [2] the test system is adult cardiomyocytes. As to the kind of experiment: Cell contractility of isolated adult cardiomyocytes (video-based edge detection). Also noted: species or system rat. The conditions noted are these: for Effect on PMA-induced reduction in contractility (peak shortening, rates of contraction and relaxation): 1 μM peptide 45 min, then 1 μM PMA 15 min. The method, then:
(§3) FIGS. 2a-2d represent the increase in cardiac contractility by the decoy peptides. Isolated adult cardiomyocytes were treated with 1 μM of indicated peptides for 45 min, and then with 1 μM of PMA for 15 min. Contractile parameters were then determined. FIGS. 2a and 2b show contractile parameters. Peak cell shortening, percentage of shortened cell length; −dL/dt, maximal rate of cell shortening; +dL/dt, maximal rate of cell relengthening. FIGS. 2c and 2d show average parameters of the transient Ca^2+ properties determined with Fura2/AM. Baseline [Ca^2+]i, baseline intracellular Ca^2+ levels; Δ[Ca^2+]i (340/380), increase in intracellular Ca^2+ levels in response to electric Stimuli; τ(ms), Ca^2+ transient decay rate. Approximately 500 cells were chosen for the contractility and Ca^2+ transient measurements were taken from eight individual hearts. #, P<0.05; *, P<0.01 compared to control; error bars represent SD.
as §1
(§4) The mechanical properties of ventricular myocytes were assessed using a video-based edge detection system (IonOptix), as previously described. In brief, laminin-coated coverslips with attached cells were placed in a chamber mounted on the stage of an inverted microscope (Nikon Eclipse TE-100F) and perfused (about 1 ml/min at 37° C.) with Tyrode buffer (137 mM NaCl, 5.4 mM KCl, 1 mM CaCl2, 1 mM MgCl2, 10 mM glucose, and 10 mM HEPES [pH 7.4]). The cells were field-stimulated at a frequency of 3 Hz (30 V) using a STIM-AT stimulator/thermostat placed on a HLD-CS culture chamber/stim holder (Cell Micro Controls). […] Changes in cell length during shortening and relengthening were captured and analyzed using soft edge software (IonOptix). The cardiomyocytes were loaded with 0.5 μM Fura2-AM (Molecular Probes), a Ca^2+-sensitive indicator, for 15 min at 37° C. Fluorescence emissions were recorded simultaneously with the contractility measurements using Myocyte calcium and contractility recording system (IonOptix). Cardiomyocytes were exposed to light emitted by a 75 W halogen lamp through either a 340 or 380 nm filter while being field-stimulated as described above. Fluorescence emissions were detected between 480 and 520 nm by a photomultiplier tube after initial illumination at 340 nm for 0.5 ms and then at 380 nm for the duration of the recording protocol. The 340 nm excitation scan was then repeated at the end of the protocol, and qualitative changes in the intracellular Ca^2+ concentration were inferred from the ratio of the Fura fluorescence intensity at both wavelengths.

Test [3] has as its system adult cardiomyocytes. As to the kind of experiment: Intracellular Ca2+ transient measurement (Fura2-AM) in isolated adult cardiomyocytes. As to conditions: for Effect on PMA-induced defects in intracellular Ca2+ handling (Ca2+ transient amplitude, time constant of decay): 1 μM peptide 45 min, then 1 μM PMA 15 min, Fura2/AM. It counts as cell-based, rat. The method, then: as §3, §1, §4

Test [4] relates to Caspase 3. As to the kind of experiment: Western blot of heart lysates after ischemia/reperfusion: Caspase 3. Further details: species or system rat. The conditions noted are these: heart lysates at the end of reperfusion with 1 μM peptide. The method, then:
(§5) FIGS. 3a-3b represent the postischemic cardiac performance ex vivo. […] The changes in left ventricular developed pressure (LVDP) are shown. n=4. *, P<0.01 compared to TAT; error bars represent SEM. […] Western blots probed with antibodies against phospho-PLB (S^16), phosphor-PLB (T^17), total PLB, Caspase 3, or GAPDH are shown.
as §2
(§6) Rats were anesthetized by inhalation of isofluran (0.5%) for 5 min. […] Heart rate, left ventricular developed pressure (LVDP), and the first derivatives of LV pressure (LV +dP/dt max and LV −dP/dt max) were all recorded using PowerLab Chart Systems (AD Instruments). The balloon volume was adjusted in 250-300 μl to result in a measured end diastolic pressure in the range of 6-10 mmHg. […]

Test [5] concerns PLB. The experiment in a line: Western blot of heart lysates after ischemia/reperfusion: phospho-PLB. Further details: species or system rat. As to conditions: heart lysates at the end of reperfusion with 1 μM peptide. The protocol: as §5, §2, §6
In test [6] the test system is rat hearts. As to the kind of experiment: Langendorff isolated perfused heart, ischemia/reperfusion ex vivo, left ventricular developed pressure. The conditions noted are these: 20 min no-flow ischemia, 30 min reperfusion with 1 μM peptide. The protocol: as §5
Rats were anesthetized by inhalation of isofluran (0.5%) for 5 min. The heart was quickly removed and placed in cold oxygenated Tyrode solution (137 mM NaCl, 5.4 mM KCl, 1 mM MgCl2, 10 mM glucose, 1 mM CaCl2, 10 mM HEPES [pH 7.4], 100% O2). The aorta was cannulated and perfused by the Langendorff method with oxygenated Tyrode solution at constant pressure (65 mmHg, temperature 37±0.2° C.). A latex water-filled balloon was inserted into the left ventricular chamber and connected to a pressure transducer (AD Instruments) for continuous measurement of heart performance. Heart rate, left ventricular developed pressure (LVDP), and the first derivatives of LV pressure (LV +dP/dt max and LV −dP/dt max) were all recorded using PowerLab Chart Systems (AD Instruments). The balloon volume was adjusted in 250-300 μl to result in a measured end diastolic pressure in the range of 6-10 mmHg. After a 30 min stabilization period, the hearts were subjected to 20 min of no-flow to induce global ischemia, followed by 30 min of reperfusion. […]

[7] abbreviates: 1 μM PMA 15 min, no decoy peptide.

Entries after “also recorded” stand apart in the source; their conditions may differ. No end group written: not given here.

On to RAETIEM [ψPLB-7-mer], for which, in test [1], the “Blocking of PMA-induced dephosphorylation of PLB at Ser16 and Thr17 (elevating the phosphorylation levels of PLB)” value (“Blocking” below) is “only ψPLB-5-mer was ineffective”.

For the compound “RADTIEMPQ (not fully specified (N-terminus); also: TAT coupled) [ψPLB-SD]”, in test [1], the “Blocking” value is given as “as effective as ψPLB-SE”. In test [2], the “Effect on PMA-induced reduction in contractility (peak shortening, rates of contraction and relaxation)” value (from here on “Effect on PMA-induced reduction”) is listed as “as effective as ψPLB-SE”. Moreover, the “Effect on PMA-induced defects in intracellular Ca2+ handling (Ca2+ transient amplitude, time constant of decay)” value (from here on “Effect on PMA-induced defects”) in test [3] is recorded as “as effective as ψPLB-SE”.

For “RAETIEMPQ (not fully specified (N-terminus); also: TAT coupled) [ψPLB-SE]”, the “I/R-induced activation of cell death-related Caspase 3” value in test [4] is on record as “completely reversed”. Further, the “Phosphorylation of PLB at Ser16 after ischemia/reperfusion” value in test [5] was “significantly recovered”. The “Left ventricular developed pressure after ischemia/reperfusion” value in test [6] (I/R alone 37-44 mmHg, pre-ischemia 80-100 mmHg) is 73-78 mmHg. In test [1], the “Phosphorylation levels of PLB after treatment compared with basal levels” value was “slightly but significantly higher than the basal levels”; the “Blocking” value was “significantly blocked; also recorded: prevented dephosphorylation”. Besides, the “Effect on PMA-induced reduction” value in test [2] is given as “completely prevented”. In addition, the “Effect on PMA-induced defects” value in test [3] was “completely reversed”.

As for `CCCCCCCCCCCCCC(=O)O[C@@H]1[C@@H](C)[C@@]2(O)[C@@H](C=C(CO)C[C@]3(O)C(=O)C(C)=C[C@@H]23)[C@@H]2C(C)(C)[C@]12OC(C)=O` [PMA, phorbol 12-myristate 13-acetate, reference compound], the “Contractility (peak shortening, rates of contraction and relaxation)” value in test [2] (setting [7]) is “significantly reduced”. In test [3] (setting [7]), the “Ca2+ transient amplitude” value is “significant reduction” and the “Time constant of the Ca2+ transient decay” value is recorded as “significant increase”.

On to “AETIEMPQ (not fully specified (N-terminus); also: TAT coupled) [ψPLB-8-mer]”, for which, in test [1], the “Blocking” value is on record as “only ψPLB-5-mer was ineffective”.

“RASEIEMPQ (not fully specified (N-terminus); also: TAT coupled) [ψPLB-TE]”: in test [1], the “Blocking” value was “blocked dephosphorylation but was less effective than ψPLB-SE; also recorded: not as effective as ψPLB-SE”. The “Effect on PMA-induced reduction” value in test [2] is reported as “no or only marginal effects”. Moreover, the “Effect on PMA-induced defects” value in test [3] is reported as “negligible or marginal”.

On to RAETI [ψPLB-5-mer], for which the “Blocking” value in test [1] is “ineffective”.

As to “YGRKKRRQRRR (Human immunodeficiency virus) [TAT, reference compound]”, in test [6], the “Effect on left ventricular developed pressure after ischemia/reperfusion” value is given as “no effects”.

Turning to RAETIE [ψPLB-6-mer], the “Blocking” value in test [1] is reported as “only ψPLB-5-mer was ineffective”. Besides, the “Effect on PMA-induced reduction” value in test [2] is “as effective as ψPLB-SE”. Besides, in test [3], the “Effect on PMA-induced defects” value is “as effective as ψPLB-SE”.

Take “RASTIEMPQ (not fully specified (N-terminus); also: TAT coupled via disulfide) [ψPLB-wt]”: the “Effect on PMA-induced reduction” value in test [2] is “no or only marginal effects”. In addition, the “Effect on PMA-induced defects” value in test [3] is on record as “negligible or marginal”.
